Measurements reported in PMC7602742, “Physiologically-Based Pharmacokinetic/Pharmacodynamic Model of MBQ-167 to Predict Tumor Growth Inhibition in Mice” (Pharmaceutics, 2020).

Columns and labels:
[1] = cited from earlier work
[2] = design: method as in PMID 31720502; settings: cited from earlier work
Cdc42 = system: Cdc42; design: method as in PMID 28450422; settings: inhibition of GTPase activation; read-out: half-maximal inhibitory concentration (IC50) for Cdc42; cited from earlier work
[3] = Tumor pharmacokinetics in 4T1 tumor-bearing mice (observed); type: in vivo; settings: BALB/c, mouse, tumor (4T1), single IP 10 mg/kg
Experimental: Thirty-five BALB/c mice were injected with 2.5 × 10^5 4T1 murine metastatic breast cancer cells at the mammary fat pad under isoflurane inhalation (1–3% in oxygen using an inhalation chamber at 2 L/min) to produce primary tumors, as described. Following IP treatment with a single dose of MBQ-167 (10 mg/kg), five mice/group were sacrificed by cervical dislocation at 0.5, 1, 3, 6, 9,12, and 24 h. Following sacrifice, tumors were collected and flushed with normal saline, individually wrapped in aluminum foil, snap-frozen in liquid nitrogen, and stored frozen at −80 °C until use.
Tumor samples were extracted by liquid-liquid extraction method, as previously described by. Briefly, frozen tumors were thawed, weighed (100 mg), and homogenized using the Polytron PT 2100 instrument in pH 7.4 saline (1:4 w/v). […]
We used a validated bioanalytical method using supercritical fluid chromatography coupled with tandem mass spectrometry to quantify MBQ-167 in tumors and tissues, as previously described. […]
The final MBQ-167 PBPK model was verified through both graphical and numerical analysis. […] The performance of the MBQ-167 PBPK model was assessed by the fold error at each tissue, which referred to the ratio of the predicted AUC0-t or Cmax to the observed AUC0-t or Cmax, respectively (Equation (1)). AUC0-t was calculated by the trapezoidal rule. […]

[4] = Metabolism on incubation in liver microsomes; type: in vitro ADME; settings: incubated in liver microsomes
From the text: (§1) Due to the limited information of any active process in MBQ-167 renal excretion and/or tubular reabsorption, it was assumed that renal excretion was only mediated by glomerular filtration.

[5] = Physicochemical properties (PBPK model inputs); settings: model input
From the text: The molecular weight of MBQ-167 is 338.414 g/mol and the water partition coefficient (logPoctanol:water) ratio is 4.944. […] The fu in plasma was estimated to 0.02. B/P ratio was initially estimated in the base PBPK model development phase and then optimized using a local sensitivity analysis (LSA) with a final value of 1.8.

CYP2C9 = CYP2C9 (Homo sapiens, UniProt P11712); assay: CYP inhibition; type: in vitro ADME
From the text: as §1

CYP2C19 = CYP2C19 (Homo sapiens, UniProt P33261); assay: CYP inhibition; type: in vitro ADME
From the text: as §1

CYP3A4 = CYP3A4 (Homo sapiens, UniProt P08684); assay: CYP inhibition; type: in vitro ADME
From the text: as §1

CYP1A2 = molecular target: T1, CYP1A2 (Homo sapiens, UniProt P05177); assay: CYP inhibition; type: in vitro ADME
T1 sequence (P05177 1-516): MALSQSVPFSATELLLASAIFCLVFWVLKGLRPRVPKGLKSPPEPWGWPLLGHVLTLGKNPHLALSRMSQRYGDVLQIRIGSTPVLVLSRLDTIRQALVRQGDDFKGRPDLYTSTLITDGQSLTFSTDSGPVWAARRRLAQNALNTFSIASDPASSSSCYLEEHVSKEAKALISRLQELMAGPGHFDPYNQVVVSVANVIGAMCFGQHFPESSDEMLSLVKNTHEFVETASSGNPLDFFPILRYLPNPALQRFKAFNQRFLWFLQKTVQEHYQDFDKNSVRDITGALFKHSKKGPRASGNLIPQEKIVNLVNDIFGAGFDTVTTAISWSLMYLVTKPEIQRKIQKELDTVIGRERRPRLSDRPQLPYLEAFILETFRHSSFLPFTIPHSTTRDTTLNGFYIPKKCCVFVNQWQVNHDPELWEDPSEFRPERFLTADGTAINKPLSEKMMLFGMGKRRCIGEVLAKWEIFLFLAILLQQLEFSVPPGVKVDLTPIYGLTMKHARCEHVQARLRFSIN
From the text: as §1

[6] = system: GFP-MDA-MB-231 (TNBC) mammary fat pad tumors; assay: Triple Negative tumor growth study (observed); type: in vivo, athymic nude (nu/nu) mice; settings: 10 mg/kg BW IP three times a week for 108 days
Experimental: As published elsewhere, female athymic nude (nu/nu) mice, 4 to 5 weeks old (Charles River Laboratories, Inc., Wilmington, MA, USA) were maintained under pathogen-free conditions in HEPA-filtered cages (5 mice per cage) under controlled light (12 h light and dark cycle), temperature (22–24 °C), and humidity (25%).
Mammary fat pad tumors were established using green fluorescent protein (GFP)-tagged MDA-MB-435 (HER2++) cells in Matrigel (BD Biosciences, San Jose, CA, USA) or GFP-MDA-MB-231 (TNBC) cells by injecting at the fourth right mammary fat pad under isofluorane inhalation (1–3% in oxygen using an inhalation chamber at 2 L/min) to produce orthotopic primary tumors. […]
Mammary tumor growth was quantified as changes in the integrated density of green fluorescent protein (GFP) fluorescence. […] The FluorVivo small animal in vivo imaging system (INDEC Systems, Inc., Santa Clara, CA, USA) was used for whole body imaging of GFP fluorescence. Tumor fluorescence intensities were analyzed using Image J software (National Institutes of Health, Bethesda, MD, USA, 2019, Version 1.52q 13). Relative tumor growth was calculated as the integrated density of fluorescence of each tumor on each day of imaging relative to the integrated density of fluorescence of the same tumor on day 1 of treatment administration, relative to vehicle controls.

[7] = Intrinsic clearance from in vitro hepatocytes; type: in vitro ADME; settings: in vitro determined, read-out: Hep intrinsic CL
From the text: as §1

[8] = Plasma and tissue pharmacokinetics after single IP dose (observed); type: in vivo; settings: female, BALB/c, mouse, single IP 10 mg/kg, mice; for AUC(0-t): read-out: AUC obs (AUC0-t)
Experimental: All animal studies were conducted under approved animal protocols (#A8180117, #A8180112) by the University of Puerto Rico Medical Sciences Campus Institutional Animal Care and Use Committee, in accordance with the principles and procedures outlined in the NIH Guideline for the Care and Use of Laboratory Animals. Four to five-week-old female BALB/c mice (Charles River Laboratories, Inc. Wilmington, MA, USA) were housed under pathogen-free conditions in HEPA-filtered cages and kept on a 12 h light/dark cycle, and controlled temperature (22–24 °C), and humidity (25%). Food and water were given ad libitum. MBQ-167 was prepared as a stock solution of 2 mg/mL in Cremophor®:ethanol:PBS (12.5:12.5:75) solution. Each mouse was administered a single 0.1 mL dose of MBQ-167 (in 12.5% ethanol, 12.5% Cremophor®, 75% phosphate buffered saline, pH 7.4) that corresponded to 10 mg/kg body weight (BW) by IP injection.
We used a validated bioanalytical method using supercritical fluid chromatography coupled with tandem mass spectrometry to quantify MBQ-167 in tumors and tissues, as previously described. The analysis was performed on an Acquity UPC^2 system (Waters Corp., Milford, MA, USA) coupled to a triple quadrupole tandem mass spectrometer (MS/MS). An Acquity UPC^2 BEH (3.0 × 100 mm^2, 1.7 μm) column was used for separation purposes.
The final MBQ-167 PBPK model was verified through both graphical and numerical analysis. Experimental and predicted longitudinal plasma concentration- (Cp) and tissue concentration- (Ct) profiles were generated, including the 95% confidence intervals (95% CI) of the observations at each sampling time and the mean predicted concentrations. LSA was performed to evaluate the relative impact of B/P, fu, CLR, CLtumor and PS in the plasma PK exposure parameters (AUC0-t and Cmax). The performance of the MBQ-167 PBPK model was assessed by the fold error at each tissue, which referred to the ratio of the predicted AUC0-t or Cmax to the observed AUC0-t or Cmax, respectively (Equation (1)). AUC0-t was calculated by the trapezoidal rule. Both graphical and numerical analyses were performed in RStudio version 1.2.5019 (Boston, MA, USA, 2019) with R version 3.5.1 (GNU project). (1) Fold ERROR PK parameter=Predicted PK parameter/Observed PK parameter

[9] = system: mammary fat pad tumor and metastases; settings: cited from earlier work

CYP3A4, sequence (P08684 whole entry): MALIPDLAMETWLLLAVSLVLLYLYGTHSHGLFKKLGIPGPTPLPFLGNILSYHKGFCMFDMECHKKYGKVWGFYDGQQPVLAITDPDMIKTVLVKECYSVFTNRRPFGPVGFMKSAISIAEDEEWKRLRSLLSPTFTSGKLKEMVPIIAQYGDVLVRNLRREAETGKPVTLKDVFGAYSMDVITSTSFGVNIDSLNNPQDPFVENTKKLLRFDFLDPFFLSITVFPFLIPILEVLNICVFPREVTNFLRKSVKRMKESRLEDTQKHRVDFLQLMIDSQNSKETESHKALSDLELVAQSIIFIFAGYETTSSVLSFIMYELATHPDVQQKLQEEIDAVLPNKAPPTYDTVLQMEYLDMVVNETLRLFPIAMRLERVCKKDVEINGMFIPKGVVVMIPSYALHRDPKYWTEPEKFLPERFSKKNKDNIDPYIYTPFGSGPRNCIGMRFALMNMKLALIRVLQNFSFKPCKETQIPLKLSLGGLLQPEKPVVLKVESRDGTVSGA
CYP2C9, sequence (P11712 whole entry): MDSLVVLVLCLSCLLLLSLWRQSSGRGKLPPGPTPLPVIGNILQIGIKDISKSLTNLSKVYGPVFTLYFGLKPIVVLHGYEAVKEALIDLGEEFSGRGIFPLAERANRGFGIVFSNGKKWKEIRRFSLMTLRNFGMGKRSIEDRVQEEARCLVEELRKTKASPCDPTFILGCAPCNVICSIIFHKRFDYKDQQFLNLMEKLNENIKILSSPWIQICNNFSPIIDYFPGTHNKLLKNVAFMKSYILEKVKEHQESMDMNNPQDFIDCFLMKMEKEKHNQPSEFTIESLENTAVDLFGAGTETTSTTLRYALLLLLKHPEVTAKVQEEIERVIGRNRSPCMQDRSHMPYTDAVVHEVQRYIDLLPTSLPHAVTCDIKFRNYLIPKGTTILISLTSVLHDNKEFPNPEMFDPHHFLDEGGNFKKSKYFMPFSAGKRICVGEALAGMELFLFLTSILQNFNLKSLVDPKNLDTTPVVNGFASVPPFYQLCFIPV
CYP2C19, sequence (P33261 whole entry): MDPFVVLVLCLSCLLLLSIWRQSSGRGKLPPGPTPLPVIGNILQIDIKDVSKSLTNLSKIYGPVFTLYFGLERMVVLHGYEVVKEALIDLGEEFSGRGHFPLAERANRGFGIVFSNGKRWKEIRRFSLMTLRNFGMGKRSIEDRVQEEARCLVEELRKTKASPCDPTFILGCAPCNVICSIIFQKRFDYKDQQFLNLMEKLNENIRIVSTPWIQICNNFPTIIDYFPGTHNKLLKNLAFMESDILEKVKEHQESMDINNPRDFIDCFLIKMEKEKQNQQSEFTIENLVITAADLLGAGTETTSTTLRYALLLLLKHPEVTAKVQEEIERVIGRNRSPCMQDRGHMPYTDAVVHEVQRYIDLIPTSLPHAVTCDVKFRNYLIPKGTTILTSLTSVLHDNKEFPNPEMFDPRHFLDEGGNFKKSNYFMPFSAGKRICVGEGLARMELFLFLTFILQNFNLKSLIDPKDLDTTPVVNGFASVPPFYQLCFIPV

## O=c1cc(CN2CCOCC2)occ1OCCCCCSc1ccnc2cc(C(F)(F)F)ccc12 [EHT1864]
[1]
  t1/2: 1.65 h

## CCn1c2ccccc2c2cc(Nc3ccnc(NCCCN4CCOCC4)n3)ccc21 [EHop-016]
[1]
  t1/2: 5.73 h

## CCn1c2ccccc2c2cc(-n3nncc3-c3ccccc3)ccc21 [MBQ-167]
[2]; mice of 20 g body weight
  volume of distribution reported in the literature: 400 mL
[2]; mice
  systemic plasma clearance (reported/observed): 2.15 mL/min
Cdc42
  IC50: […]
[3]
  Cmax: 1240 ng/mL
[3]; read-out: AUC obs (AUC0-t)
  AUC(0-t): 10300 ng·h/mL
[4]
  metabolites formed: up to nine metabolites
[5]
  Compound Type: Monoprotic Base
[5]; source not stated
  pKa: 0.27
[5]; octanol:water, source not stated
  logPo:w: 4.944
CYP2C9
  CYP2C9 inhibition: inhibits
CYP2C19
  CYP2C19 inhibition: inhibits
CYP3A4
  CYP3A4 inhibition: inhibits
CYP1A2
  CYP1A2 inhibition: inhibits
[6]
  observed relative reduction in the final tumor size: 87.0%
[7]
  hepatocyte CLint: 79 µL/min/1e6 cells
[8]; heart
  Cmax: 841 ng/mL
  AUC(0-t): 949 ng·h/mL
[8]; kidneys
  Cmax: 11200 ng/mL
  AUC(0-t): 34300 ng·h/mL
[8]; liver
  Cmax: 4790 ng/mL
  AUC(0-t): 8390 ng·h/mL
[8]; lung
  Cmax: 1540 ng/mL
  AUC(0-t): 1890 ng·h/mL
[8]; plasma
  Cmax: 840 ng/mL
  AUC(0-t): 1420 ng·h/mL
[8]; spleen
  Cmax: 1690 ng/mL
  AUC(0-t): 3980 ng·h/mL
[9]; 10 mg/kg BW, mice
  effect on metastases: total inhibition of metastases
  start of mammary fat pad tumor size reduction after treatment: approximately 3 weeks
[9]; preclinical studies
  toxicity in vivo: without apparent toxicity
